Patent US10221174B2, “N-(phenylsulfonyl)benzamides and related compounds as BCL-2 inhibitors” (THE REGENTS OF THE UNIVERSITY OF MICHIGAN, priority 2016, dated 2019)
Like-named read-outs stand apart in the source and are kept apart here.

Columns and labels:
RS4;11 cells = assay: RS4;11 cell viability, CCK-8 assay; type: cell-based; settings: Homo sapiens, RS4-11, 96 h, CCK-8, 4 days, read-out: RS4, 11 IC50 (Bcl-2 dependent)
In short: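 RS4;11 cells seeded at 10000 cells/well in medium with 10% FBS, cultured overnight, then exposed to serially diluted compound for 4 days at 37° C., 5% CO2. Viability by CCK-8 absorbance at 450 nm, normalized to vehicle; IC50 by nonlinear regression.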

Mcl-1 = Mcl-1 (Homo sapiens (Human), UniProt Q07820); assay: Fluorescence polarization competitive binding assay, Mcl-1; settings: FP competition, 20 nM Mcl-1, 2 nM Flu-BID probe; read-out: Inhibitory activity IC50 Mcl-1
Mcl-1, sequence (Q07820 whole entry): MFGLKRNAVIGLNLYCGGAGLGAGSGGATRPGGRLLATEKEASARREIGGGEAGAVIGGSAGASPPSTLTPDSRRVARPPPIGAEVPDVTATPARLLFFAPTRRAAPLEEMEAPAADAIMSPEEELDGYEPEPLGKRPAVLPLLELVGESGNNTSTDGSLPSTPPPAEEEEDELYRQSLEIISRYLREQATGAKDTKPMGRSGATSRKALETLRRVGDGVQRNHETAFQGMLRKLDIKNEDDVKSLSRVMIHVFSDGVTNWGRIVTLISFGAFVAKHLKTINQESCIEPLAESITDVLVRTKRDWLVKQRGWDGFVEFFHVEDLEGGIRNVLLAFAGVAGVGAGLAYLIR
Procedure: Fluorescence polarization values were measured using the Infinite M-1000 plate reader (Tecan U.S., Research Triangle Park, N.C.) in Microfluor 1 96-well, black, round-bottom plates (Thermo Scientific). […] Plates were mixed and incubated at room temperature for 1 hour with gentle shaking to assure equilibrium. […] Equilibrium dissociation constants (Kd) were then calculated by fitting the sigmoidal dose-dependent FP increases as a function of protein concentrations using Graphpad Prism 5.0 software (Graphpad Software, San Diego, Calif.).
Mixtures of 5 μl of the tested inhibitors in DMSO and 120 μl of pre-incubated protein/probe complexes in the assay buffer were added into assay plates and incubated at room temperature for 2 hours with gentle shaking. […] FP values were measured as described above. IC50 values were determined by nonlinear regression fitting of the competition curves.

Pharmacokinetics in rats = type: in vivo
Procedure: The pharmacokinetics of ABT-199 and representative Compounds of the Disclosure were evaluated in rats at an IV dose of 2 mg/kg and an oral dose of 20 mg/kg.

[1] = tested on: RS4;11 leukemia xenograft; assay: RS4;11 leukemia xenograft model; type: in vivo; settings: nude mice, oral gavage
Procedure: The antitumor activity of Cpd. No. 6 (compound 6) was also studied in the RS4;11 leukemia xenograft model. Human RS4;11 tumor cells were injected into nude mice and treatment started on day 11 when the tumor size reached approximately 100 mm^3. Cpd. No. 6 was administered via oral gavage at indicated doses and schedules. Cpd.

## O=C(NS(=O)(=O)c1ccc(NC[C@H]2COCCO2)c([N+](=O)[O-])c1)c1ccc(N2CCN(CC3=C(c4ccc(Cl)cc4)CC4(CCC4)CC3)CC2)cc1Oc1cnc2[nH]ccc2c1 [Cpd. No. 6, (S)-N-((4-(((1,4-dioxan-2-yl)methyl)amino)-3-nitrophenyl)sulfonyl)-2-((1H-pyrrolo[2,3-b]pyridin-5-yl)oxy)-4-(4-((6-(4-chlorophenyl)spiro[3.5]non-6-en-7-yl)methyl)piperazin-1-yl)benzamide]
RS4;11 cells
  IC50: 5.5 nM
Mcl-1
  IC50: > 5000 nM
Pharmacokinetics in rats; IV 2 mg/kg
  AUC0-∞ IV: 2915 n · gh/mL
Pharmacokinetics in rats; oral 20 mg/kg
  AUC0-∞ PO: 13475 n · gh/mL
Pharmacokinetics in rats; oral 20 mg/kg vs IV 2 mg/kg
  F(AUC0-t): 46.2%
Pharmacokinetics in rats; rat, in vivo, IV 2 mg/kg
  MRT inf: 2.09 h
Pharmacokinetics in rats; rat, in vivo, IV 2 mg/kg, read-out: AUC0-t IV
  AUC(0-t): 2900 ng·h/mL
Pharmacokinetics in rats; rat, in vivo, IV 2 mg/kg, read-out: CL (iv) (converted)
  clearance: 11.6 mL/min/kg
Pharmacokinetics in rats; rat, in vivo, IV 2 mg/kg, read-out: Cmax IV
  Cmax: 4170 ng/mL
Pharmacokinetics in rats; rat, in vivo, IV 2 mg/kg, read-out: Tmax IV
  Tmax: 0.083 h
Pharmacokinetics in rats; rat, in vivo, IV 2 mg/kg, read-out: Vss (iv)
  Vd: 1.44 L/kg
Pharmacokinetics in rats; rat, in vivo, IV 2 mg/kg, read-out: t1/2 IV (converted)
  half-life: 4.39 h
Pharmacokinetics in rats; rat, in vivo, oral 20 mg/kg, read-out: AUC0-t PO
  AUC(0-t): 13400 ng·h/mL
Pharmacokinetics in rats; rat, in vivo, oral 20 mg/kg, read-out: Cmax PO
  Cmax: 2620 ng/mL
Pharmacokinetics in rats; rat, in vivo, oral 20 mg/kg, read-out: Tmax PO
  Tmax: 2.67 h
Pharmacokinetics in rats; rat, in vivo, oral 20 mg/kg, read-out: t1/2 PO (converted)
  half-life: 3.12 h
[1]; FIG. 4
  mouse weight: does not cause weight loss in mice
[1]; treatment from day 11, FIG. 3
  antitumor activity (tumor growth): inhibits tumor growth
